Assay results: patent US20160175249A1, “Liposomes Containing Oligopeptide Fragments of Myelin Basic Protein, a Pharmaceutical Composition and a Method for Treatment of Multiple Sclerosis” (LIPOXEN TECHNOLOGIES LIMITED, priority 2009, published 2016)
Values belong to the molecule of their own block, whether it stands above or below them.

Key:
[1] = tested on: EAE-induced DA rats; assay: EAE-induced DA rat model, paralysis score and mortality (DA-EAE-28-01, Example 12); format: in vivo; settings: daily s.c. injection, 6 total
Protocol: Each of the seven formulations being evaluated was provided as a lyophilized powder and stored at 4° C. Rehydration of each daily group dose was done with water for injection according to Table 6. MBP peptide formulations were re-suspended in water for injection (Cure Medical) and copaxone (Teva LTD) was diluted with Saline to a final concentration of 150 μg/mL. Each subject animal was administered the test formulation for 6 consecutive days by subcutaneous injection.
9 week old Dark Agouti (DA) female rats (Harlan Laboratories, Inc.), weighing between 125 and 145 grams were used as the test subjects. The health status of the animals used in this study was examined on arrival. Only animals in good health were acclimatized to laboratory conditions and were used in the study. Animals were provided Protein Rodent Diet (Teklad) ad libitum and free access to drinking water. Animals were housed in a controlled environment at between 20° C. and 24° C. with a relative humidity of 30-70% and a 12 hr light/12 hr dark cycle. Animals were randomly assigned to their respective test group. This study was performed following the review by the Committee for Ethical Conduct in the Care and Use of Laboratory Animals of the Assaf Harofeh medical center, Beer Yaakov, Ethical Committee number: 68/2009.
For induction of EAE, rats were intradermally injected at the base of the tail with a total volume of 200 μl of inoculum containing 50 μg of MBP(63-81) (ANASPEC), in saline mixed (1:1) with CFA, (IFA, Sigma) and 1 mg Mt (strain H37 RA; Difco Laboratories, Detroit, Mich.).
The rats were evaluated up daily starting 24 hours after immunization. […]
7-10 days post EAE induction, 54 animals were divided to 9 groups (6 rats in each), and blood was collected from 2 rats of each group before the initiation of the treatment. […] The animals were maintained and evaluated until day 28th post EAE-induction. […]
Animals were observed individually and clinical signs were recorded once daily during all study periods. […] The body weight of each animals was determined daily during all study periods. […]

[2] = tested on: experimental autoimmune encephalomyelitis (EAE) in DA rats; assay: EAE in DA rats treated with MBP peptides in mannosylated SUV liposomes (Example 10); format: in vivo
Protocol: All animal studies were carried out in animal facilities of Assaf Harofeh Medical Center (Zerifin, Israel) using standard approved practices for animal care. Induction of EAE was performed in 8-9 weeks Dark Agouti (DA) female rats. Briefly, rats were injected intradermally at the base of the tail with a total volume of 200 μl of inoculum, containing […] of MBP(63-81) (ANASPEC), in saline mixed (1:1) with CFA, (incomplete Freund's adjuvant (IFA), Sigma), and 1 mg MT (strain H37 RA; Difco Laboratories, Detroit, Mich.). Animals developing symptoms of MS were included to the study. Rats were treated with different liposomes formulations (Table 3), copaxone, or placebo (vehicle) under similar conditions for 6 days. All formulations were administrated by one subcutaneous injection per day. Animals were followed up till day 28th post EAE induction. Clinical signs score was performed daily during all study periods. Score gradation was the following: 0—Normal 1—tail weakness, 2—hind leg weakness or paralysis, 3—hind leg paralysis, dragging hind limbs, 4—complete paralysis, unable to move, 5—death.
Liposomes were assembled from a mixture of egg phosphatidylcholine (PC) and one molar percent mannosylated DOG (ManDOG) (Durova OM, supra). Assembly of SUV liposomes was performed as illustrated in FIG. 3: (i) formation of irregular lipid layers during evaporation of organic solvent, followed by re-hydration leading to the multi-layer multilamellar vesicle (MLV) liposomes formation; (ii) high-pressure homogenization resulting in formation of empty SUV; (iii) freeze drying of SUV liposomes with peptides—at this stage peptides are located between collapsed SUV liposomes; and (iv) encapsulation of peptides during second re-hydration into the SUV liposomes with an average diameter of approximately 60-100 nm, containing 1.0% mannose residues on their surface. Four formulations were used for this study: each B cell epitope MBP peptide (MBP1, MBP2, and MBP3) individually and a 1:1:1 mixture (by mass) of all three peptides.
Small unilamellar vesicles (SUV) were prepared from egg phosphatidylcholine (PC) and mannosylated DOG (Espuelas S. et al., Synthesis of an amphiphilic tetraantennary mannosyl conjugate and incorporation into liposome carriers, 2003 Bioorg Med Chem Lett., August 4; 13(15):2557-60, the contents of which are hereby incorporated by reference in their entirety for all purposes) (1:100 molar ratio) by high pressure homogenization (Durova OM, supra). Briefly, lipid mixture (100 mg/ml) in CHCl3 was dried under vacuum, further re-suspended in Milli-Q water to a final lipid concentration 50 mg/ml, followed by high-pressure homogenization (20,000 psi). Resulting SUV were mixed with peptides (lipid to peptide ratio 330:1) together with excess sugar (lactose to lipid ratio 3:1) with subsequent freeze-drying. Following rehydration under controlled conditions, the resulting SUV liposomes were washed by centrifugation to remove non-incorporated materials. The washed pellets were re-suspended in PBS to the required dose volume. Peptide incorporation was estimated on the basis of reversed-phase HPLC using linear gradient of acetonitrile applied on C18 column. The z-average diameter and zeta potential of liposomes were measured on a Brookhaven ZetaPlus zetasizer at 25° C. by diluting […] of the dispersion to the required volume with 1 mM PBS or appropriate media.
To test the therapeutic potential of the four formulations, DA rates presenting with induced EAE were subcutaneously injected with one of the four mannosylated liposomal formulations, copaxone (positive control), free (un-encapsulated) MBPI peptide (negative control), and empty mannosylated liposomes (vehicle control; Table 3).
Treatment of each rat was initiated at the first sign of EAE clinical manifestation. […]

[3] = target: polyclonal serum anti-MBP antibodies isolated from immunized DA rats; assay: Surface plasmon resonance of autoAb binding to biotinylated MBP peptides and MBP; settings: SPR, BiaCore T-200, antibodies 50 μg/ml, immobilized peptide or MBP; for Kd: read-out: effective dissociation constant
Protocol: To quantify autoAb recognition of the identified MBP epitopes, and to confirm their sequence in vitro, the affinity of polyclonal serum anti-MBP antibodies isolated from immunized DA rats for biotinylated MBP peptides was determined by surface plasmon resonance (FIG. 2B). The effective dissociation constant of the full-length MBP protein (1.5×10^−8) was determined to be nanomolar, as were the dissociation constants for MBP encephalitogenic (9.6×10^−9) and C-terminal (8.4×10^−9) fragments, verifying their identity as major B cell epitopes.
All surface plasmon resonance measurements were performed on BiaCore T-200 apparatus (GE Healthcare, US). Biotinylated MBP peptides (50 μg/ml) (listed on FIG. 2) and MBP were immobilized on SA and CM-5 chips respectively. All procedures were performed according manufacture's recommendations. Flow rate of HBS-EP buffer was kept as 10 μl/min during all measurements. Antibodies (50 μg/ml) were tested on both chips with standard association/dissociation time 300/300 s. Dissociation constants were calculated using BiaCore T-200 Evaluation Software 1.0.

Molecule: GGDRGAPKRGSGKDSHH (MBP peptide) [MBP1, myelin basic protein fragment MBP(46-62), free un-encapsulated peptide]
- Mortality Rate ([1]; 54 EAE induced DA rats, peptide dose 50 μg (mixtures 150 μg), deaths/N): 1/6
- efficacy, overall disease score ([1]; comparison between groups): comparable
- mean disease score course (FIG. 4) ([2]; 6 daily s.c. injections from first clinical sign): did not provide any beneficial effects
- Mortality ([2]; one s.c. injection per day, 6 injections, deaths/N): 1/15
- Median Cumulative Disease Score ([2]; one s.c. injection per day, 6 injections, doses per Table 3): 19.5
- Median Maximal Disease Score (IQR) ([2]; one s.c. injection per day, 6 injections, doses per Table 3, score 0-5): 3 (0.5)^2

- Kd [3]: 8.4 nM
Molecule: IFKLGGRDSRSGSPMARR [C-terminal fragment]

- Kd [3]: 9.6 nM
Molecule: QDENPVVHFFKNIV [MBP encephalitogenic fragment]

- effective dissociation constant [3]: not detectable
Molecule: MDHARHGFLPRH [biotinylated MBP fragment]

- Kd [3]: 15 nM
B1: full-length MBP protein: myelin basic protein, 18.5 kDa, 171 amino acids (protein)
chain: MASQKRPSQRHGSKYLATASTMDHARHGFLPRHRDTGILDSIGRFFGGDRGAPKRGSGKDSHHPARTAHYGSLPQKSHGRTQDENPVVHFFKNIVTPRTPPPSQGKGRGLSLSRFSWGAEGQRPGFGYGGRASDYKSAHKGFKGVDAQGTLSKIFKLGGRDSRSGSPMARR
modifications: MBP splice isoforms
notes: myelin basic protein, 18.5 kDa, 171 amino acids
